Measurements published in the NIST ThermoML archive (doi:10.1021/je030218b).
Numbers after ± are expanded uncertainties.

Legend:
[1] = refractive index (Na D-line) (dimensionless); conditions: 298.15 K; 101.33 kPa; Liquid; Standard Abbe refractometry
[2] = Liquid; for mass density / speed of sound: 298.15 K, 101.33 kPa
[3] = refractive index (Na D-line) (dimensionless); xn = mol fraction of the nth substance listed; conditions: 298.15 K, 101 kPa, Liquid, Standard Abbe refractometry
[4] = xn = mol fraction of the nth substance listed; conditions: 298.15 K, 101 kPa, Liquid

CC(C)CO [2-methyl-1-propanol]
Conditions	mass density [kg/m3]	refractive index	speed of sound [m/s]
[1]	–	1.3937 ± 0.00072	–
[2]	797.84 ± 0.46	–	1185.6 ± 1.7

Conditions	vapor or sublimation pressure [kPa]
[2], 381 K	101.3 ± 1.1

CC(C)CO [2-methyl-1-propanol] + CCOC(C)=O
Conditions	refractive index, [3]	speed of sound, [4] [m/s]
x2 = 0.052	1.39253 ± 0.00072	1186.1 ± 1.7
x2 = 0.104	1.39136 ± 0.00072	1184.4 ± 1.7
x2 = 0.155	1.39012 ± 0.00072	1182.9 ± 1.7
x2 = 0.206	1.3889 ± 0.00072	1181.5 ± 1.7
x2 = 0.258	1.38753 ± 0.00072	1179.3 ± 1.7
x2 = 0.308	1.38611 ± 0.00072	1177.5 ± 1.7
x2 = 0.359	1.3847 ± 0.00072	1175.6 ± 1.7
x2 = 0.41	1.3833 ± 0.00072	1174.2 ± 1.7
x2 = 0.46	1.38169 ± 0.00072	1171.3 ± 1.7
x2 = 0.51	1.3803 ± 0.00072	1169 ± 1.6
x2 = 0.56	1.37842 ± 0.00072	1165.2 ± 1.6
x2 = 0.609	1.37674 ± 0.00072	1163 ± 1.6
x2 = 0.659	1.37505 ± 0.00072	1160.4 ± 1.6
x2 = 0.708	1.37301 ± 0.00072	1158.2 ± 1.6
x2 = 0.757	1.37111 ± 0.00072	1155.3 ± 1.6
x2 = 0.806	1.36884 ± 0.00072	1152.8 ± 1.6
x2 = 0.855	1.36675 ± 0.00072	1150.1 ± 1.6
x2 = 0.904	1.36431 ± 0.00072	1147.4 ± 1.6
x2 = 0.952	1.36189 ± 0.00072	1144.7 ± 1.6

CCO [ethanol]
Conditions	mass density [kg/m3]	refractive index	speed of sound [m/s]
[1]	–	1.35916 ± 0.00072	–
[2]	785.36 ± 0.48	–	1143.1 ± 1.6

Conditions	vapor or sublimation pressure [kPa]
[2], 351.5 K	101.3 ± 1.1

CCCCCO [pentan-1-ol]
Conditions	mass density [kg/m3]	refractive index	speed of sound [m/s]
[1]	–	1.4077 ± 0.00072	–
[2]	810.96 ± 0.44	–	1273.3 ± 1.8

Conditions	vapor or sublimation pressure [kPa]
[2], 410.59 K	101.3 ± 1.1

CCOC(C)=O [ethyl acetate]
Conditions	mass density [kg/m3]	refractive index	speed of sound [m/s]
[1]	–	1.3698 ± 0.00072	–
[2]	894.24 ± 0.38	–	1137.7 ± 1.6

Conditions	vapor or sublimation pressure [kPa]
[2], 350.25 K	101.3 ± 1.1

CCCCCO [pentan-1-ol] + CCOC(C)=O
Conditions	mass density, [4] [kg/m3]	refractive index, [3]	speed of sound, [4] [m/s]
x2 = 0.05	814.16 ± 0.44	1.40579 ± 0.00072	1263.5 ± 1.8
x2 = 0.101	817.63 ± 0.43	1.40382 ± 0.00072	1253.8 ± 1.8
x2 = 0.15	821.07 ± 0.42	1.40193 ± 0.00072	1245 ± 1.7
x2 = 0.2	824.6 ± 0.42	1.40012 ± 0.00072	1236.5 ± 1.7
x2 = 0.251	828.3 ± 0.41	1.39803 ± 0.00072	1227.5 ± 1.7
x2 = 0.3	831.9 ± 0.4	1.39629 ± 0.00072	1219.9 ± 1.7
x2 = 0.35	835.73 ± 0.4	1.39423 ± 0.00072	1211.9 ± 1.7
x2 = 0.4	839.69 ± 0.39	1.3925 ± 0.00072	1204.5 ± 1.7
x2 = 0.45	843.69 ± 0.38	1.39052 ± 0.00072	1198.2 ± 1.7
x2 = 0.5	847.81 ± 0.38	1.38863 ± 0.00072	1190.5 ± 1.7
x2 = 0.549	851.89 ± 0.37	1.38676 ± 0.00072	1184.1 ± 1.7
x2 = 0.599	856.06 ± 0.36	1.38493 ± 0.00072	1178.8 ± 1.7
x2 = 0.65	860.53 ± 0.36	1.38303 ± 0.00072	1172.1 ± 1.7
x2 = 0.7	865.01 ± 0.35	1.38107 ± 0.00072	1166.8 ± 1.7
x2 = 0.749	869.4 ± 0.34	1.37919 ± 0.00072	1161.7 ± 1.6
x2 = 0.8	874.19 ± 0.34	1.37733 ± 0.00072	1157.1 ± 1.6
x2 = 0.85	879 ± 0.33	1.37548 ± 0.00072	1152.2 ± 1.6
x2 = 0.898	883.69 ± 0.32	1.3736 ± 0.00072	1148 ± 1.6
x2 = 0.947	888.68 ± 0.32	1.37188 ± 0.00072	1144.1 ± 1.6
